According to article PMC12316034, “Tetrahydromagnolol induces autophagic cell death by targeting the m^6A reader protein YTHDF2 and enhances the efficacy of anti-PD-1 immunotherapy in pancreatic cancer cells” (Theranostics, 2025):

Molecular target: T1, YTHDF2 (YTH N6-methyladenosine RNA binding protein F2) (Homo sapiens, UniProt Q9Y5A9)
T1 construct: recombinant protein of YTHDF2 (NCBI: 51441)
T1 sequence (Q9Y5A9 2-579): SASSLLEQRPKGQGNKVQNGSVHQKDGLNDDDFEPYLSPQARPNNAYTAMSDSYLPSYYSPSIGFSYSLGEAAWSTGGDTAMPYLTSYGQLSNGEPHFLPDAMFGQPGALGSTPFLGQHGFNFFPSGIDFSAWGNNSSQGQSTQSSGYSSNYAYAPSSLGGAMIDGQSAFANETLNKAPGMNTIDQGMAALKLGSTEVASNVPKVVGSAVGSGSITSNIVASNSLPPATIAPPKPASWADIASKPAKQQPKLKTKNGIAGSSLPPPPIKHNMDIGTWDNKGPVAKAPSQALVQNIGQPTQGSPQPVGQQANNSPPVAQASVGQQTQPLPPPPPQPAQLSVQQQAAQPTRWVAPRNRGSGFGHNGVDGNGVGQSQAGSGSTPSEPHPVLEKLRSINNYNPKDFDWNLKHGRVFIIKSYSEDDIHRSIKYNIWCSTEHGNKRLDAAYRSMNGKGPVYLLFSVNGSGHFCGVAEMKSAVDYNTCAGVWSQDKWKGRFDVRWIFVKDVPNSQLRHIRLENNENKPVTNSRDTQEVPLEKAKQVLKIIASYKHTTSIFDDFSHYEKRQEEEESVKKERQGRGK
Assay: SPR on immobilised recombinant YTHDF2; also ITC, THM-bead pull-down, CETSA, LC-MS/MS

Question: Which Kd does the source give for CCCc1ccc(O)c(-c2cc(CCC)ccc2O)c1 [Tetrahydromagnolol] here?
Answer: 22 µM
